Data from publication PMC7821381, “Multi-Targeted Anticancer Activity of Imidazolate Phosphane Gold(I) Compounds by Inhibition of DHFR and TrxR in Breast Cancer Cells” (Frontiers in Chemistry, 2021).

Tests used:
BLBC tumors = system: BLBC tumors; parameters: method as in Gambini et al., 2018; details: ref Gambini et al., 2018; cited from earlier work
[1] = target: T1, dihydrofolate reductase (DHFR) (Mus musculus, UniProt P00375); test: DHFR specific enzymatic activity in lysates of treated A17 cells; format: cell-based, murine; details: 6 μM (maximum inhibition)
T1 construct: Cell lysates were collected using Cell Culture Lysis Reagent; endogenous in cells; host or cells: A17 (murine basal-like breast cancer cells)
T1 sequence (P00375 1-187): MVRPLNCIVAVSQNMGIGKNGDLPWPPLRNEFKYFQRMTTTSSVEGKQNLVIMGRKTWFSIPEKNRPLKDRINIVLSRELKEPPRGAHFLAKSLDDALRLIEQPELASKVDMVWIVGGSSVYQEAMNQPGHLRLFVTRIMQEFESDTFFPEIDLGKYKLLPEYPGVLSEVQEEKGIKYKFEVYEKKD
Procedure: SKBR3, MDA-MB-231 and A17 cells were plated onto 100 mm cell culture dishes (2 × 10^6 cells/ dish). The day after, cells were treated with vehicle alone (DMSO) as control or increasing concentrations of compound 5 and compound 6 in DMEM supplemented with 2% FBS (Invitrogen, Carlsbad, CA) for 4 h or 12 h. Representative pictures of cells treated with compound 5 or 6 at the indicated concentration for 4 or 12 h just before to take cell lysates for the enzymatic tests are reported as supplemental files. Cell lysates were collected using Cell Culture Lysis Reagent (Promega, Madison, WI) supplemented with BSA (1%) and protease inhibitors. DHFR activity was assessed by spectrophotometric assay as reported elsewhere (Wang et al., [2020]) in which the reaction rate was followed by recording the decreasing absorbance at 340 nm due to oxidation of NADPH to NADP^+, using a Shimadzu UV-2450 spectrophotometer. When necessary, because of low protein content in the lysates, the DHFR enzymatic activity was measured by a discontinuous direct HPLC assay using an Agilent 1100 system. HPLC-DAD (Agilent 1100) was used to detect and quantify the presence of NADP^+, as one of the products of DHFR catalyzed reaction, in cell lysates. Fifty microliter of the cell lysate were incubated at 37°C in a reaction mixture containing 760 μl of buffer (0.05 M Hepes pH 7.3), 20 μl of NADPH 4 mM, and 20 μl of dihydrofolate (H2F) 4 mM. The samples for HPLC analysis were prepared as follows: 50 μl aliquots of each mixture were stopped at different times (0, 5, 10, 20, 30, and 60 min) by adding 25 μl of HClO4 1.2 M; after 10 min on ice and centrifugation for 5 min at 12,000 g, 60 μl of each supernatant were neutralized by adding 17.5 μl of K2CO3 0.79 M, kept on ice and centrifuged again. Fifty microliter of the supernatant obtained were directly injected into the reversed phase column for separations of reagents and products of the enzyme catalyzed reaction. The column used is a Supelcosil LC RP 18 (4.6 × 250 mm) with pre-column SupelGuard. The HPLC settings are the same reported in Wang et al. ([2020]). The amounts of product (NADP^+) were determined from the peak areas of the HPLC-separated compounds with reference to appropriate standards. One enzyme unit is defined as the amount of enzyme which catalyzes the reduction of 1 μmol of dihydrofolate, per minute, at 37°C. Enzyme activities were normalized by the protein content, determined by the Bradford assay (Bradford, [1976]).

EB-ct-DNA = test: Competitive binding fluorescence study with EtBr (EB-ct-DNA); parameters: species or system calf; details: competitive EtBr displacement, fluorescence quenching, pH 7.4
From the text: EtBr weakly emits fluorescence in aqueous solutions (Pasternack et al., [1983]), however in presence of ct-DNA strongly emits at ~600 nm due to strong intercalation between adjacent DNA base pairs. Ethidium bromide (EB) can be employed as a probe for the spectroscopic study of the interaction between DNA and intercalating species because of a 24-fold decrease in its fluorescence when displaced from an intercalation site by the addition of a competitive binding molecule probably due to decreasing in the number of binding sites accessible to EtBr (Tong et al., [2012]). […] Fluorescence quenching spectra were recorded using a Hitachi 4,500 spectrofluorometer with an excitation wavelength of 490 nm and emission spectrum 500–700 nm. The fluorescence spectra were recorded and the fluorescence value of the decrease in emission spectra was corrected according to the relationship:
where Fc and Fm are the corrected and measured fluorescence, respectively. A1 and A2 are the absorbance of tested compounds at the exciting and emission wavelengths. For fluorescence quenching experiments, Stern-Volmer's equation was used (Equation 3): […]

Human apoTF (ATF) = target: T2, Human apoTF (ATF) (Homo sapiens, UniProt P02787); test: Transferrin (ATF) fluorescence quenching; format: binding; details: Stern-Volmer constant, Tris-HCl pH 7.4, 25°C
T2 construct: purchased Sigma Aldrich
Procedure: Human apoTF (ATF) was purchased from Sigma Aldrich and its concentration was determined by measuring the absorbance at 278 nm (ε = 92,300 M^−1 cm^−1). To evaluate if compounds 5 and 6 were able to bind to ATF in vitro, fluorescence spectra were recorded from 300 nm to 450 nm upon tryptophan excitation at 285 nm. Fluorimetric titrations were performed by titrating a 2 mL sample (prepared in 10 mM Tris-HCl buffer pH 7.4, 10 mM NaCl) containing human ATF (12.5 μM) with incremental additions of different aliquots of gold-complexes (5 mM in DMSO). Protein fluorescence intensity was recorded after each successive addition of complex solution and equilibration (5 min). The value of Stern Volmer constants of the different metal complexes to ATF were evaluated following Equation 3 and fluorescent values were corrected by Equation 2. All titrations were performed at room temperature (25°C) and averages between two trials are reported.

[2] = system: thioredoxin reductase (TrxR); details: for Specific enzymatic activity of TrxR: SKBR3, 12 h treatment, 8 μM (maximum inhibition), control 4.07 ± 0.32; for TrxR residual activity: SKBR3 cells, versus control cells
Procedure: The assay was performed as previously reported (Galassi et al., [2012]) in 0.2 M Na, K-phosphate buffer (pH 7.4) containing 2 mM EDTA. The assay contained 0.12 mM NADPH and different amounts of cell lysate. The reaction was initiated by the addition of 3 mM 5,5′-dithiobis (2-nitrobenzoic acid) (DTNB) and the increase of absorbance was monitored at 412 nm over 5 min at 25°C.

[3] = A17, 4 h treatment, control 1.17 ± 0.06
[4] = A17, 12 h treatment, control 4.77 ± 0.78

T2 sequence (P02787 20-698): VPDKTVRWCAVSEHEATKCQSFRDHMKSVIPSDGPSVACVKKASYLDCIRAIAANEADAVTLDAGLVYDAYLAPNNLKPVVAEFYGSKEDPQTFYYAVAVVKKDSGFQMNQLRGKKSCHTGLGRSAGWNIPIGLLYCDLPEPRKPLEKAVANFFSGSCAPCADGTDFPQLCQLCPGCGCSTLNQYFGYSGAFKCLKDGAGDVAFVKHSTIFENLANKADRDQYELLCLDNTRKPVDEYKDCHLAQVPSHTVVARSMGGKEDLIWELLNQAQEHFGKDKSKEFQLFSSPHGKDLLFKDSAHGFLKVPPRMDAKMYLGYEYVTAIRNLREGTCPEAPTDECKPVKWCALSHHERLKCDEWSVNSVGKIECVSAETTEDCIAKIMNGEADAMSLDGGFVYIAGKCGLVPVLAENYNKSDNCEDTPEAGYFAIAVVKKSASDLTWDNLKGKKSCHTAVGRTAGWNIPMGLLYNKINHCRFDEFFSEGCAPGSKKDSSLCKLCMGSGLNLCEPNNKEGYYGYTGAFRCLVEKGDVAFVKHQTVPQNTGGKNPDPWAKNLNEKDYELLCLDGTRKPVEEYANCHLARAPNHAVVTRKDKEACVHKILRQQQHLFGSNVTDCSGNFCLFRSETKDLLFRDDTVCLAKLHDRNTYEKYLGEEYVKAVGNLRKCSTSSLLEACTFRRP

| Substance | activity against BLBC tumors transplanted in syngeneic mice compared with cisplatin (BLBC tumors) | Specific enzymatic activity of DHFR [1, 3] | Specific enzymatic activity of DHFR [1, 4] | EB-ct-DNA Ksv (EB-ct-DNA) | ATF Ksv (Human apoTF (ATF)) | Specific enzymatic activity of TrxR [2] | TrxR residual activity [2] |
| --- | --- | --- | --- | --- | --- | --- | --- |
| 4,5-dichloro-imidazolate-1yl-gold(I)-(triphenylphosphane) [Compound 6] | much more active than cisplatin | 1.03 ± 0.03 mU/mg | 2.01 ± 0.14 mU/mg | 4.22 ± 0.34 10^3 M^−1 | 1.51 ± 0.55 10^4 M^−1 | 1.51 ± 0.04 (8 μM) mU/mg | 49% |
| 4,5-dicyano-imidazolate-1yl-gold(I)-(triphenylphosphane) [Compound 5] | much more active than cisplatin | 1.07 ± 0.02 mU/mg | 1.66 ± 0.07 mU/mg | 1.55 ± 0.34 10^3 M^−1 | 1.93 ± 0.44 10^4 M^−1 | 1.98 ± 0.06 (8 μM) mU/mg | 37% |
